For assay [1], the target named is human full-length recombinant HPK1 (Homo sapiens (Human), UniProt Q92918). As to the kind of experiment: HPK1 biochemical enzyme assay, microfluidic mobility shift assay (MSA). Particulars: mobility shift assay; 75 μM ATP; Morrison equation, tight-binding competitive inhibition; read-out: HPK1 Enzyme Assay_Ki.
In assay [2] the test system is phospho-SLP-76 (Ser376) in Jurkat cells. The experiment in a line: Phospho-SLP-76 (Ser376) Homogeneous Time Resolved Fluorescence (HTRF) assay in Jurkat cells. The class given is cell-based. To be noted: Homo sapiens, 30 min pre-treatment, anti-CD3 stimulation 15 min, HTRF, read-out: SLP76 Assay_IC50. In outline: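 Jurkat cells pre-treated 30 min with compounds (10 μM to 0.1 nM, 11-point, 0.1% DMSO), then stimulated with 200 μg/mL F(ab)2-complexed anti-CD3 (UCHT1) for 15 min at 37 °C. Lysate phospho-SLP-76 detected by HTRF after overnight antibody incubation; IC50 from four-parameter fit.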

Among the data in patent publication US11142525B2 (Pfizer Inc., priority 2018, dated 2021) are Ki and IC50 values, retold here.

Structures are written as SMILES. Counter-ions that a name gives are not always drawn. Some results are limits rather than exact numbers.

Sequence of human full-length recombinant HPK1 (Q92918 whole entry): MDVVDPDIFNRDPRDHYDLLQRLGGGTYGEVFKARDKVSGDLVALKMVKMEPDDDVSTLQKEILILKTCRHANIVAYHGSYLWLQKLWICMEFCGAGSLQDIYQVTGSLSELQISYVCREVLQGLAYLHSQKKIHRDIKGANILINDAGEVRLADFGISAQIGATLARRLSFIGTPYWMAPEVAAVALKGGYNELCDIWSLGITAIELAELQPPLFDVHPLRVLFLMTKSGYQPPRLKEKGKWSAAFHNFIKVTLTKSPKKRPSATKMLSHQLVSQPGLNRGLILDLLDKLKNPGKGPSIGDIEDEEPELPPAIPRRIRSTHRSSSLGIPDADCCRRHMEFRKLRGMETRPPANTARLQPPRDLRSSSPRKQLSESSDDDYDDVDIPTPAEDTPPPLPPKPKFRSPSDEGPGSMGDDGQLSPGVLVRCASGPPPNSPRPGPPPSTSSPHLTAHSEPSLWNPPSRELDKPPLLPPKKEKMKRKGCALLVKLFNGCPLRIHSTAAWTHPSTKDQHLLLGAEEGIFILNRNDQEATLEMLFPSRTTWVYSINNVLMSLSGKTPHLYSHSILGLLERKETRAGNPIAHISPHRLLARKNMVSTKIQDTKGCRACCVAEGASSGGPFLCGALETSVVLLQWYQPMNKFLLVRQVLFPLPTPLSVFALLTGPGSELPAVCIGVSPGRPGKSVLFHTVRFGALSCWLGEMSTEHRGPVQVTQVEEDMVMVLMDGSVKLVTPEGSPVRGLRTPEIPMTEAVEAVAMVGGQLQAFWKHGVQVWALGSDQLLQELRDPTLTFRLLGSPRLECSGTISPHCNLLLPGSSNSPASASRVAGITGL

Turning to `CNCc1nc(N(C)C)cc2c1CN(c1cccc(N3C(=O)OC[C@@H]3C(F)F)n1)C2=O` [Example 37, 2-{6-[(4R)-4-(difluoromethyl)-2-oxo-1,3-oxazolidin-3-yl]pyridin-2-yl}-6-(dimethylamino)-4-[(methylamino)methyl]-2,3-dihydro-1H-pyrrolo[3,4-c]pyridin-1-one], the Ki in assay [1] came out at 1.5 nM. Moreover, the IC50 in assay [2] was found to be 487 nM.

For `CCN(CC)c1cc2c(c(CN)n1)CN(c1cccc(-c3nncn3C(C)C)n1)C2=O` [Example 38, 4-(aminomethyl)-6-(diethylamino)-2-{6-[4-(propan-2-yl)-4H-1,2,4-triazol-3-yl]pyridin-2-yl}-2,3-dihydro-1H-pyrrolo[3,4-c]pyridin-1-one], the Ki in assay [1] came out at 0.38 nM. Moreover, the IC50 in assay [2] amounted to 147 nM.

In the case of `CNCc1nc(C(C)(C)C)cc2c1CN(c1cccc(N3C(=O)OC[C@@H]3C)n1)C2=O` [Example 39, 6-tert-butyl-4-[(methylamino)methyl]-2-{6-[(4S)-4-methyl-2-oxo-1,3-oxazolidin-3-yl]pyridin-2-yl}-2,3-dihydro-1H-pyrrolo[3,4-c]pyridin-1-one], the Ki in assay [1] came to 1.8 nM. Also, in assay [2], the IC50 came to 672 nM.

As to `CNCc1nc(C2CC2)cc2c1CN(c1cccc(N3C(=O)OC[C@@H]3C)n1)C2=O` [Example 40, 6-cyclopropyl-4-[(methylamino)methyl]-2-{6-[(4S)-4-methyl-2-oxo-1,3-oxazolidin-3-yl]pyridin-2-yl}-2,3-dihydro-1H-pyrrolo[3,4-c]pyridin-1-one], in assay [1], the Ki is 0.81 nM. Besides, the IC50 in assay [2] stood at 137 nM.

Turning to `CC(C)c1cc2c(c(CN)n1)CN(c1cccc(N3C(=O)OC[C@@H]3C)n1)C2=O` [Example 41, 4-(aminomethyl)-2-{6-[(4S)-4-methyl-2-oxo-1,3-oxazolidin-3-yl]pyridin-2-yl}-6-(propan-2-yl)-2,3-dihydro-1H-pyrrolo[3,4-c]pyridin-1-one], the Ki in assay [1] is 4.6 nM. Besides, in assay [2], the IC50 came out at 315 nM.

Take `C[C@H]1COC(=O)N1c1cccc(N2Cc3c(cc(C4(C)CC4)nc3CN)C2=O)n1` [Example 42, 4-(aminomethyl)-6-(1-methylcyclopropyl)-2-{6-[(4S)-4-methyl-2-oxo-1,3-oxazolidin-3-yl]pyridin-2-yl}-2,3-dihydro-1H-pyrrolo[3,4-c]pyridin-1-one]: the Ki in assay [1] is 0.33 nM. The IC50 in assay [2] was 192 nM.

As for `C[C@@H]1C[C@@H](C)N1c1cc2c(c(CN)n1)CN(c1cccc(N3C(=O)OC[C@@H]3C)n1)C2=O` [Example 43, 4-(aminomethyl)-6-[(2R,4R)-2,4-dimethylazetidin-1-yl]-2-{6-[(4S)-4-methyl-2-oxo-1,3-oxazolidin-3-yl]pyridin-2-yl}-2,3-dihydro-1H-pyrrolo[3,4-c]pyridin-1-one], the Ki in assay [1] amounted to 1.92 nM. Further, the IC50 in assay [2] was determined as 561 nM.

On to `C[C@H]1COC(=O)N1c1cccc(N2Cc3c(cc(N4CCC4)nc3CN)C2=O)n1` [Example 44, 4-(aminomethyl)-6-(azetidin-1-yl)-2-{6-[(4S)-4-methyl-2-oxo-1,3-oxazolidin-3-yl]pyridin-2-yl}-2,3-dihydro-1H-pyrrolo[3,4-c]pyridin-1-one], for which, in assay [1], the Ki turned out to be 0.4 nM. The IC50 in assay [2] came to 244 nM.

As to `CNCc1nc(N(C)C)cc2c1CN(c1cccc(N3C(=O)OC[C@@H]3CF)n1)C2=O` [Example 45, 6-(dimethylamino)-2-{6-[(4R)-4-(fluoromethyl)-2-oxo-1,3-oxazolidin-3-yl]pyridin-2-yl}-4-[(methylamino)methyl]-2,3-dihydro-1H-pyrrolo[3,4-c]pyridin-1-one], in assay [1], the Ki was 0.17 nM. Further, in assay [2], the IC50 amounted to 173 nM.

On to `CCCn1cnnc1-c1cccc(N2Cc3c(cc(N(C)C)nc3CNC)C2=O)n1` [Example 46, 6-(dimethylamino)-4-[(methylamino)methyl]-2-[6-(4-propyl-4H-1,2,4-triazol-3-yl)pyridin-2-yl]-2,3-dihydro-1H-pyrrolo[3,4-c]pyridin-1-one], for which the Ki in assay [1] worked out at 0.14 nM. In addition, in assay [2], the IC50 turned out to be 94 nM.

Turning to `CNCc1nc(C)cc2c1CN(c1cccc(-c3nncn3C(C)C)n1)C2=O` [Example 47, 6-methyl-4-[(methylamino)methyl]-2-{6-[4-(propan-2-yl)-4H-1,2,4-triazol-3-yl]pyridin-2-yl}-2,3-dihydro-1H-pyrrolo[3,4-c]pyridin-1-one], the Ki in assay [1] worked out at 7.1 nM. In addition, the IC50 in assay [2] was 1520 nM.

`CCN(C)c1cc2c(c(CNC)n1)CN(c1cccc(-c3nncn3C(C)C)n1)C2=O` [Example 48, 6-[ethyl(methyl)amino]-4-[(methylamino)methyl]-2-{6-[4-(propan-2-yl)-4H-1,2,4-triazol-3-yl]pyridin-2-yl}-2,3-dihydro-1H-pyrrolo[3,4-c]pyridin-1-one]: the Ki in assay [1] turned out to be 0.14 nM. Further, the IC50 in assay [2] amounted to 94 nM.

Consider `CNCc1nc(C2(C)CC2)cc2c1CN(c1cccc(N3C(=O)OC[C@@H]3C)n1)C2=O` [Example 49, 4-[(methylamino)methyl]-6-(1-methylcyclopropyl)-2-{6-[(4S)-4-methyl-2-oxo-1,3-oxazolidin-3-yl]pyridin-2-yl}-2,3-dihydro-1H-pyrrolo[3,4-c]pyridin-1-one], for which the Ki in assay [1] was 1.46 nM. In addition, the IC50 in assay [2] was determined as 730 nM.

For `CNCc1nc(N)cc2c1CN(c1cccc(-c3nncn3C(C)C)n1)C2=O` [Example 50, 6-amino-4-[(methylamino)methyl]-2-{6-[4-(propan-2-yl)-4H-1,2,4-triazol-3-yl]pyridin-2-yl}-2,3-dihydro-1H-pyrrolo[3,4-c]pyridin-1-one], the Ki in assay [1] worked out at 0.14 nM. In addition, the IC50 in assay [2] worked out at 94 nM.

For the molecule `CNCc1nc(N2[C@H](C)C[C@@H]2C)cc2c1CN(c1cccc(-c3nncn3C(C)C)n1)C2=O` [Example 53, 6-[(2R,4S)-2,4-dimethylazetidin-1-yl]-4-[(methylamino)methyl]-2-{6-[4-(propan-2-yl)-4H-1,2,4-triazol-3-yl]pyridin-2-yl}-2,3-dihydro-1H-pyrrolo[3,4-c]pyridin-1-one], the Ki in assay [1] was 0.61 nM. The IC50 in assay [2] stood at 489 nM.

For `CCCn1cnnc1-c1cccc(N2Cc3c(cc(N(C)CC)nc3CN)C2=O)n1` [Example 56, 4-(aminomethyl)-6-[ethyl(methyl)amino]-2-[6-(4-propyl-4H-1,2,4-triazol-3-yl)pyridin-2-yl]-2,3-dihydro-1H-pyrrolo[3,4-c]pyridin-1-one hydrochloride], the Ki in assay [1] came out at 0.34 nM. Further, the IC50 in assay [2] stood at 139 nM.

`CCC(CC)n1cnnc1-c1cccc(N2Cc3c(cc(C4(C)CC4)nc3CNC)C2=O)n1` [Example 57, 4-[(methylamino)methyl]-6-(1-methylcyclopropyl)-2-{6-[4-(pentan-3-yl)-4H-1,2,4-triazol-3-yl]pyridin-2-yl}-2,3-dihydro-1H-pyrrolo[3,4-c]pyridin-1-one]: the Ki in assay [1] is 0.21 nM. Further, in assay [2], the IC50 is 74 nM.

As for `CC[C@H](C)n1cnnc1-c1cccc(N2Cc3c(cc(C4(C)CC4)nc3CNC)C2=O)n1` [Example 58, 2-(6-{4-[(2S)-butan-2-yl]-4H-1,2,4-triazol-3-yl}pyridin-2-yl)-4-[(methylamino)methyl]-6-(1-methylcyclopropyl)-2,3-dihydro-1H-pyrrolo[3,4-c]pyridin-1-one], the Ki in assay [1] worked out at 0.16 nM. In addition, in assay [2], the IC50 was 103 nM.

With `CCCn1cnnc1-c1cccc(N2Cc3c(cc(N(C)CC)nc3CNC)C2=O)n1` [Example 59, 6-[ethyl(methyl)amino]-4-[(methylamino)methyl]-2-[6-(4-propyl-4H-1,2,4-triazol-3-yl)pyridin-2-yl]-2,3-dihydro-1H-pyrrolo[3,4-c]pyridin-1-one], in assay [1], the Ki amounted to 0.19 nM. In assay [2], the IC50 was found to be 59 nM.

On to `CCN(C)c1cc2c(c(CN)n1)CN(c1cccc(-c3nncn3CC)n1)C2=O` [Example 60, 4-(aminomethyl)-6-[ethyl(methyl)amino]-2-[6-(4-ethyl-4H-1,2,4-triazol-3-yl)pyridin-2-yl]-2,3-dihydro-1H-pyrrolo[3,4-c]pyridin-1-one], for which, in assay [1], the Ki was 0.17 nM. Besides, in assay [2], the IC50 stood at 70 nM.

Consider `CCn1c(C)nnc1-c1cccc(N2Cc3c(cc(N4CCC[C@H]4C)nc3CN)C2=O)n1` [Example 61, 4-(aminomethyl)-2-[6-(4-ethyl-5-methyl-4H-1,2,4-triazol-3-yl)pyridin-2-yl]-6-[(2R)-2-methylpyrrolidin-1-yl]-2,3-dihydro-1H-pyrrolo[3,4-c]pyridin-1-one], for which the Ki in assay [1] was 0.18 nM. In addition, in assay [2], the IC50 was 88 nM.

On to `CNCc1nc(C2(C)CC2)cc2c1CN(c1cccc(-c3nncn3C3CCC3)n1)C2=O` [Example 65, 2-[6-(4-cyclobutyl-4H-1,2,4-triazol-3-yl)pyridin-2-yl]-4-[(methylamino)methyl]-6-(1-methylcyclopropyl)-2,3-dihydro-1H-pyrrolo[3,4-c]pyridin-1-one], for which, in assay [1], the Ki was 0.35 nM. The IC50 in assay [2] came to 114 nM.

`CCc1nnc(-c2cccc(N3Cc4c(cc(N5CCC[C@H]5C)nc4CNC)C3=O)n2)n1CC` [Example 66, 2-[6-(4,5-diethyl-4H-1,2,4-triazol-3-yl)pyridin-2-yl]-4-[(methylamino)methyl]-6-[(2R)-2-methylpyrrolidin-1-yl]-2,3-dihydro-1H-pyrrolo[3,4-c]pyridin-1-one]: in assay [1], the Ki worked out at 0.52 nM. Besides, the IC50 in assay [2] was 108 nM.

On to `C[C@@H]1CCCN1c1cc2c(c(CN)n1)CN(c1cccc(N3C(=O)OC[C@@H]3CF)n1)C2=O` [Example 68, 4-(aminomethyl)-2-{6-[(4R)-4-(fluoromethyl)-2-oxo-1,3-oxazolidin-3-yl]pyridin-2-yl}-6-[(2R)-2-methylpyrrolidin-1-yl]-2,3-dihydro-1H-pyrrolo[3,4-c]pyridin-1-one], for which the Ki in assay [1] is < 0.07 nM. In addition, the IC50 in assay [2] came out at 50 nM.
